Assay results from publication PMC3648344 (BMC Structural Biology, 2013).

Target: T1, ecMnmC (Escherichia coli, UniProt P77182)
T1 construct: gene mnmC; full-length bifunctional MnmC, 668 residues, ~75 kDa monomer; N-terminal His6 tag removed with thrombin; pET30a-LIC, expressed in E. coli BL21(DE3)
T1 sequence (P77182 1-668): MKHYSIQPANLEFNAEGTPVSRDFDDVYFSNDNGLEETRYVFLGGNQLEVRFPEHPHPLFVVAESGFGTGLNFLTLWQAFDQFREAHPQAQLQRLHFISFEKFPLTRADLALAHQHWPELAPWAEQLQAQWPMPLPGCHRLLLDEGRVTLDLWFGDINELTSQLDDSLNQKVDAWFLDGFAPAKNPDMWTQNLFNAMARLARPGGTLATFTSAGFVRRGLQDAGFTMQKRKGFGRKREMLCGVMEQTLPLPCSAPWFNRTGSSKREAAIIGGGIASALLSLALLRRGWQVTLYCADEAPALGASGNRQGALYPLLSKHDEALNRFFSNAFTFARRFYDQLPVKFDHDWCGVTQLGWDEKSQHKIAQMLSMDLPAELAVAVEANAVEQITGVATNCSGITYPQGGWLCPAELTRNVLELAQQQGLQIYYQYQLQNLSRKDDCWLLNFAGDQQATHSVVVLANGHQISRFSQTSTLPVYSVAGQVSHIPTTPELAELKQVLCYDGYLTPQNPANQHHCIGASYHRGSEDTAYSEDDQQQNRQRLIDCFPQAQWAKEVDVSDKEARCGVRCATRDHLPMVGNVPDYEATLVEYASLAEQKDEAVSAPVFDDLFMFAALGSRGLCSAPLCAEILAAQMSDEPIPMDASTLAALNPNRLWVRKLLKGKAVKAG
Assay: X-ray crystal structure, […] Å
Assay type: binding

Row | SMILES | X-ray crystal structure, 2.55 Å (co-purified FAD, none added, SAM bound, MnmC1 domain site) | X-ray crystal structure, 2.55 Å (crystals soaked with 5 mM SAM, FAD bound, MnmC2 domain site)
1 | Cc1cc2nc3c(=O)[nH]c(=O)nc-3n(C[C@H](O)[C@H](O)[C@H](O)COP(=O)(O)OP(=O)(O)OC[C@H]3O[C@@H](n4cnc5c(N)ncnc54)[C@H](O)[C@@H]3O)c2cc1C [FAD] | All three MnmC structures unambiguously exhibited bound FAD (Figure 4A) | –
2 | C[S+](CC[C@H](N)C(=O)O)C[C@H]1O[C@@H](n2cnc3c(N)ncnc32)[C@H](O)[C@@H]1O (some centres unmarked) [SAM] | – | Our structures show that ecMnmC and ypMnmC bind SAM in an almost identical manner
